US11753446B2, “Beta-hairpin peptidomimetics” (POLYPHOR AG, priority 2014, dated 2023)
Where a SMILES comes first, the peptide text is derived from it. Bridges are numbered along the chain shown (N, C = ends). [ ]: non-standard residue; d: D form. Ala(cPent) = N[C@@H](CC1CCCC1)C(=O)O; Gly(cPent) = N[C@H](C(=O)O)C1CCCC1; Tle = CC(C)(C)[C@H](N)C(=O)O; dDab = NCC[C@@H](N)C(=O)O; Orn = NCCC[C@H](N)C(=O)O; Dab = NCC[C@H](N)C(=O)O; Dap = NC[C@H](N)C(=O)O

Assays:
[1] = tested on: Acinetobacter baumannii DSM 30008; format: cell-based; settings: DSM 30008
Summary of the method: (§1)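 Peptide MICs were determined by NCCLS broth microdilution in cation-adjusted Mueller-Hinton II broth. Inoculum was about 10^6 CFU/mL, matched to 0.5 McFarland, with peptides in two-fold serial dilutions. The broth contained Polysorbate 80 at 0.002% final concentration.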

[2] = tested on: Escherichia coli ATCC 25922; format: cell-based; settings: ATCC 25922
Summary of the method: as §1

[3] = tested on: Klebsiella pneumoniae ATCC 13883; format: cell-based; settings: ATCC 13883
Summary of the method: as §1

[4] = tested on: human red blood cells (hRBC); assay: Hemolysis: hemolytic activity at 100 μg/mL, 1 h at 37° C.; settings: red cells of human, 1 h, 100
Summary of the method: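 Peptides at 100 μg/mL incubated with washed 20% (v/v) human erythrocytes (~0.9×10^9 cells/mL) for 1 h at 37 °C with shaking. Released hemoglobin read at OD 540 nm in supernatant; 0% and 100% lysis from PBS/0.001% acetic acid and 2.5% Triton X-100.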

Compound	Acinetobacter baumannii DSM 30008 MIC [1]	Escherichia coli ATCC 25922 MIC [2]	Klebsiella pneumoniae ATCC 13883 MIC [3]	Hemolysis at 100 μg/mL [4]
CC(C)[C@@H]1NC(=O)[C@@H]2CSSC[C@H](NC(=O)[C@H](C3CCCC3)NC(=O)[C@H](CCCNC(=N)N)NC(=O)[C@@H](CCN)NC1=O)C(=O)N[C@@H](Cc1ccc(O)cc1)C(=O)N[C@@H](CC(N)=O)C(=O)N[C@@H](CCCN)C(=O)N[C@H](CCN)C(=O)N[C@@H](CCN)C(=O)N[C@@H](Cc1c[nH]c3ccccc13)C(=O)N[C@@H](CO)C(=O)N[C@@H](Cc1ccc(O)cc1)C(=O)N2 [Example 59, cyclo(-Cpg-Cys-Tyr-Asn-Orn-^DDab-Dab-Trp-Ser-Tyr-Cys-Val-^DDab-Arg-)] (cyclo(CV[dDab]R[Gly(cPent)]CYN[Orn][dDab][Dab]WSY); disulfide 1-6)	0.75 µg/mL	1 µg/mL	0.75 µg/mL	1%
CC(C)[C@@H]1NC(=O)[C@@H]2CSSC[C@H](NC(=O)[C@H](CC3CCCC3)NC(=O)[C@H](CCCNC(=N)N)NC(=O)[C@@H](CCN)NC1=O)C(=O)N[C@@H](Cc1ccc(O)cc1)C(=O)N[C@@H](CC(N)=O)C(=O)N[C@@H](CCCN)C(=O)N[C@H](CCN)C(=O)N[C@@H](CCN)C(=O)N[C@@H](Cc1c[nH]c3ccccc13)C(=O)N[C@@H](CO)C(=O)N[C@@H](Cc1ccc(O)cc1)C(=O)N2 [Example 58, cyclo(-Cpa-Cys-Tyr-Asn-Orn-^DDab-Dab-Trp-Ser-Tyr-Cys-Val-^DDab-Arg-)] (cyclo([Ala(cPent)]CYN[Orn][dDab][Dab]WSYCV[dDab]R); disulfide 2-11)	0.625 µg/mL	0.5 µg/mL	0.75 µg/mL	3%
CC(C)C[C@@H]1NC(=O)[C@H](CCCNC(=N)N)NC(=O)[C@@H](CCN)NC(=O)[C@H](C(C)C)NC(=O)[C@@H]2CSSC[C@H](NC1=O)C(=O)N[C@@H](Cc1ccc(O)cc1)C(=O)N[C@@H](CN)C(=O)N[C@@H](CCCN)C(=O)N[C@H](CCN)C(=O)N[C@@H](CCN)C(=O)N[C@@H](Cc1c[nH]c3ccccc13)C(=O)N[C@@H](CO)C(=O)N[C@@H](Cc1ccc(O)cc1)C(=O)N2 [Example 72, cyclo(-Leu-Cys-Tyr-Dap-Orn-^DDab-Dab-Trp-Ser-Tyr-Cys-Val-^DDab-Arg-)] (cyclo(CV[dDab]RLCY[Dap][Orn][dDab][Dab]WSY); disulfide 1-6)	0.625 µg/mL	0.75 µg/mL	0.5 µg/mL	3%
CC(C)[C@@H]1NC(=O)[C@@H]2CCCN2C(=O)[C@@H](C)NC(=O)[C@H]([C@@H](C)O)NC(=O)[C@H](CO)NC(=O)[C@H](C(C)(C)C)NC(=O)[C@H](CCN)NC(=O)[C@H](Cc2c[nH]c3ccccc23)NC(=O)[C@H](CCN)NC(=O)[C@@H](CCN)NC(=O)[C@H](CN)NC(=O)[C@H](CCN)NC(=O)[C@H](Cc2ccc(O)cc2)NC(=O)[C@H](CN)NC1=O [Example 45, cyclo(-Val-Dap-Tyr-Dab-Dap-^DDab-Dab-Trp-Dab-tBuGly-Ser-Thr-^DAla-Pro-)] (cyclo([Dab][Dap][dDab][Dab]W[Dab][Tle]ST[dA]PV[Dap]Y))	1 µg/mL	0.5 µg/mL	0.25 µg/mL	4%
